Measurements as given in US20230263742A1, “A LIPID” (Stemirna Therapeutics Co., Ltd., priority 2021, published 2023).

How the values were obtained:
[1] = Encapsulation efficiency (RIBOGREEN kit); format: physicochemical; conditions: Luc mRNA-LNP 50:10:38.5:1.5
Method: For nanoparticle compositions including an RNA, a QUANT-IT™ RIBOGREENR®RNA assay (Invitrogen Corporation Carlsbad, Calif.) can be used to evaluate the encapsulation of an RNA by the nanoparticle composition. The samples were diluted to a concentration of approximately 5 μg/mL in a TE buffer solution (10 mM Tris-HCl, 1 mM EDTA, pH 7.5). 50 μL of the diluted samples are transferred to a polystyrene 96 well plate and either 50 μL of TE buffer or 50 μL of a 2% Triton X-100 solution is added to the wells. The plate is incubated at a temperature of 37° C. for 15 minutes. The RIBOGREENR reagent is diluted 1:100 in TE buffer and 100 μL of this solution is added to each well. The fluorescence intensity can be measured using a fluorescence plate reader (Wallac Victor 1420 Multilablel Counter; Perkin Elmer, Waltham, Mass.) at an excitation wavelength of, for example, about 480 nm and an emission wavelength of, for example, about 520 nm. The fluorescence values of the reagent blank are subtracted from that of each of the samples and the percentage of free RNA is determined by dividing the fluorescence intensity of the intact sample (without addition of Triton X-100) by the fluorescence value of the disrupted sample (caused by the addition of Triton X-100).
Encapsulation efficiency detection method: LNP content and encapsulation efficiency detection were carried out according to the RIBOGREEN kit.

Balb/C mice [2] = test: In vivo Luc expression after tail vein injection of Luc mRNA-LNP; conditions: 5 μg Luc mRNA-LNP tail vein, 6 hours
Method: In vivo expression evaluation method: 5 μg Luc (luciferase) mRNA-LNP solution of SW-II-118, SW-120, or SW-121 were injected into the tail vein of Balb/C mice. 6 hours after the administration, the mice are injected 0.15 mg/kg of […] substrate intraperitoneally. Within 15 minutes after the injection of the substrate, the fluorescence signal intensity was tested under a small animal in vivo imaging instrument.

Balb/C mice [3] = test: In vivo Luc expression after intramuscular injection, compared with MC3 (Example 4); conditions: 5 μg Luc mRNA-LNP (DSPC) intramuscularly, Balb/C mice n=3, 6 hours
Method: The mRNA nanoparticle compositions of SW-II-118, SW-120, and SW-121 were prepared according to the method provided in Example 3. The ratios of the lipids were 50:10:38.5:1.5 mol % for cationic lipid: DSPC: cholesterol: PEG-DMG. The cationic lipid MC3 was a current standard in the art. Accordingly, the standard MC3 formulation including 50 mol % MC3, 10 mol % DSPC, 38.5 mol % cholesterol, and 1.5 mol % PEG-DMG was used as a reference for this study.
5 μg of Luc mRNA-LNP of MC3, SW-II-118, SW-II-120, or SW-II-121 was intramuscularly injected into Balb/C mice (n=3). 6 hours after the administration, the mice were injected intraperitoneally with 0.15 mg/kg […] substrate. 15 minutes after the injection of the substrate, the fluorescence signal intensity was tested under a small animal in vivo imaging instrument.

A20 cells = test: In vitro cell Luc expression, A20; format: cell-based; conditions: 100 ng Luc mRNA-LNP, 24 h
Method: (§1) In vitro cell expression evaluation method: C2C12 cells, HepG2 cells, A20 cells were cultured, and 100,000 cells per well were plated on a 96-well plate. 100 ng of LNP samples were mixed with the cells and incubated for 24 hours (n=3), and then the expression was detected using luciferase quantitative kit 24 h after administration.

HepG2 cells = test: In vitro cell Luc expression, HepG2; format: cell-based; conditions: 100 ng Luc mRNA-LNP, 24 h
Method: as §1

cells = test: Cytotoxicity, CCK-8 cell viability; format: cell-based; conditions: 200 ng LNP, 24 h, CCK-8, vs cells blank
Method: Evaluation method of cytotoxicity: 200 ng of LNP samples were mixed with cells and incubated for 24 h, then the viability was detected using CCK-8 cell viability detection kit. 10 μl of CCK-8 detection reagent was added to the transfected cells and the OD value was detected using a microplate reader at a detection wavelength of 450 nm. The cell viability percentage is obtained by comparing the OD value with that of the cells blank.

Balb/C mice [4] = test: Luc expression in injection site and liver site after intramuscular administration (Example 5); format: in vivo; conditions: 5 μg Luc mRNA-LNP (DSPC) intramuscularly, Balb/C mice n=3, 6 h
Method: Further bioluminescence studies were performed to investigate the delivery efficiency of nanoparticle compositions including various lipid compounds according to the present invention. The formulations containing reference cationic lipid M62, M63, M118, and M119 (corresponding to Compound 62, 63, 118, and 119 in PCT/US2018/022717 (WO2018/170306), respectively) were evaluated for comparison. Nanoparticle compositions including DSPC as an optimized phospholipid, cholesterol as a structural lipid, PEG-DMG as a PEG lipid, an RNA, and a compound above mentioned were prepared according to or via methods similar to those described in Examples 1 and 2. The ratios of the lipids were 50:10:38.5:1.5 mol % for the lipid of the present invention: DSPC: cholesterol: PEG-DMG. 5 μg of LNP solution containing luciferase mRNA was administered intramuscularly to Balb/C mice (n=3). 6 hours after administration, mice were injected intraperitoneally with 0.15 mg/kg of D-luciferin substrate. Within 15 minutes after the injection of the substrate, the fluorescence signal intensity in injection site and liver site were tested under a small animal in vivo imaging instrument. Tables 3-4 summarize the fluorescence signal intensity of the nanoparticle compositions including present invention lipids and the reference compounds in injection site and liver site.

Structure (SMILES): CCCCCCCCC(CCCCCCCC)OC(=O)CCCCCCCN(CCO)CCCCCCCC(=O)OCCc1ccc(CCCC)cc1 [SW-II-118]
- Encapsulation Efficiency (EE, %) ([1]; phospholipid DAPC): 86.4%
- Encapsulation Efficiency (EE, %) ([1]; phospholipid DMPE): 86.2%
- Encapsulation Efficiency (EE, %) ([1]; phospholipid DOPE): 87.5%
- Encapsulation Efficiency (EE, %) ([1]; phospholipid DPPC): 83.4%
- Encapsulation Efficiency (EE, %) ([1]; phospholipid DSPC): 76.0%
- Encapsulation Efficiency (EE, %) ([1]; phospholipid DSPE): 81.0%
- In vivo expression (Balb/C mice [2]; phospholipid DAPC): 8658333.3 p/sec/cm^2/sr
- In vivo expression (Balb/C mice [2]; phospholipid DMPE): 23780.0 p/sec/cm^2/sr
- In vivo expression (Balb/C mice [2]; phospholipid DOPE): 38066666.7 p/sec/cm^2/sr
- In vivo expression (Balb/C mice [2]; phospholipid DPPC): 34323333.3 p/sec/cm^2/sr
- In vivo expression (Balb/C mice [2]; phospholipid DPPE): 25176.7 p/sec/cm^2/sr
- In vivo expression (Balb/C mice [2]; phospholipid DSPC): 40156666.7 p/sec/cm^2/sr
- In vivo expression (Balb/C mice [2]; phospholipid DSPE): 25383333.3 p/sec/cm^2/sr
- Luc expression in liver site compared with injection site (FIG. 2) (Balb/C mice [3]): higher than that in injection site
- in vivo Luc expressions (FIG. 2) (Balb/C mice [3]; compared with MC3): higher than that of MC3
- A20 cell, in vitro expression (A20 cells; phospholipid DAPC): 5337
- A20 cell, in vitro expression (A20 cells; phospholipid DMPE): 34438
- A20 cell, in vitro expression (A20 cells; phospholipid DOPE): 2295
- A20 cell, in vitro expression (A20 cells; phospholipid DPPC): 12326.5
- A20 cell, in vitro expression (A20 cells; phospholipid DPPE): 1627.5
- A20 cell, in vitro expression (A20 cells; phospholipid DSPC): 9068
- A20 cell, in vitro expression (A20 cells; phospholipid DSPE): 3748
- HepG2 cell, in vitro expression (HepG2 cells; phospholipid DAPC): 6674
- HepG2 cell, in vitro expression (HepG2 cells; phospholipid DMPE): 17608.5
- HepG2 cell, in vitro expression (HepG2 cells; phospholipid DOPE): 17838.5
- HepG2 cell, in vitro expression (HepG2 cells; phospholipid DPPC): 31083
- HepG2 cell, in vitro expression (HepG2 cells; phospholipid DPPE): 86
- HepG2 cell, in vitro expression (HepG2 cells; phospholipid DSPC): 11247.5
- HepG2 cell, in vitro expression (HepG2 cells; phospholipid DSPE): 3053
- Viability (%) (cells; phospholipid DAPC): 104.0%
- Viability (%) (cells; phospholipid DMPE): 110.8%
- Viability (%) (cells; phospholipid DOPE): 98.7%
- Viability (%) (cells; phospholipid DPPC): 105.4%
- Viability (%) (cells; phospholipid DPPE): 162.7%
- Viability (%) (cells; phospholipid DSPC): 103.0%
- Viability (%) (cells; phospholipid DSPE): 113.9%
- Luc expression in injection site, I.M. injection site, 6 h (ratio relative to SW-II-134-3 set as 1) (Balb/C mice [4]): 1.450
- Luc expression in liver site, Liver site upon I.M., 6 h (ratio relative to SW-II-137-1 set as 1) (Balb/C mice [4]): 2.234
